Measured values reported in ChEMBL document CHEMBL4613312, “Predictive Gene Signature for Pyrazolopyrimidine Derivative c-Src Inhibitor 10a Sensitivity in Melanoma Cells” (ACS Med Chem Lett, 2020).
Calls of active or inactive are those of the source.

What was measured:
Homo sapiens [1] = organism: Homo sapiens; test: Cytotoxicity against human M193 cells assessed as reduction in cell viability at 0.8 to 6 mM measured after 72 hrs by Celltiter-Glo luminescent assay; assay type: functional, cell-based
Homo sapiens [2] = organism: Homo sapiens; test: Cytotoxicity against human M221 cells assessed as reduction in cell viability at 50 to 800 nM measured after 72 hrs by Celltiter-Glo luminescent assay; assay type: functional, cell-based
[3] = Cytotoxicity against human SHM20A2 cells assessed as reduction in cell viability measured after 72 hrs by Celltiter-Glo luminescent assay; assay type: functional, cell-based
Homo sapiens [4] = organism: Homo sapiens; test: Downregulation of NSUN5 mRNA level in human M193 cells by SYBR-green dye based qRT-PCR analysis; assay type: functional, cell-based
[5] = Cytotoxicity against human M77 cells assessed as reduction in cell viability measured after 72 hrs by Celltiter-Glo luminescent assay; assay type: functional, cell-based
[6] = Synergistic cytotoxicity against human M193 cells assessed as combination index at 20 uM measured after 72 hrs in presence of 0.8 mM sodium valproate by Celltiter-Glo luminescent assay based Chou-Talalay method; assay type: functional
[7] = Cytotoxicity against human M193 cells assessed as reduction in cell viability at 20 uM measured after 72 hrs by Celltiter-Glo luminescent assay relative to control; assay type: functional
Homo sapiens [8] = organism: Homo sapiens; test: Upregulation of PLOD2 mRNA level in human M221 cells by SYBR-green dye based qRT-PCR analysis; assay type: functional, cell-based
[9] = Synergistic cytotoxicity against human M221 cells assessed as combination index at 20 uM measured after 72 hrs in presence of 0.2 mM sodium valproate by Celltiter-Glo luminescent assay based Chou-Talalay method; assay type: functional
[10] = Cytotoxicity against human M2025 cells assessed as reduction in cell viability measured after 72 hrs by Celltiter-Glo luminescent assay; assay type: functional, cell-based
Homo sapiens [11] = organism: Homo sapiens; test: Upregulation of TMED7 mRNA level in human M193 cells by SYBR-green dye based qRT-PCR analysis; assay type: functional, cell-based
[12] = Chemosensitization activity in human M221 cells assessed as reduction in cell viability at 20 uM measured after 72 hrs in presence of 200 nM sodium valproate by Celltiter-Glo luminescent assay relative to control; assay type: functional
Homo sapiens [13] = organism: Homo sapiens; test: Downregulation of XRCC5 mRNA level in human M2025 cells by SYBR-green dye based qRT-PCR analysis; assay type: functional, cell-based
M34 [14] = test: Upregulation of TMED7 mRNA level in human M34 cells by SYBR-green dye based qRT-PCR analysis; assay type: functional, cell-based
Homo sapiens [15] = organism: Homo sapiens; test: Upregulation of TMED7 mRNA level in human M433 cells by SYBR-green dye based qRT-PCR analysis; assay type: functional, cell-based
[16] = Cytotoxicity against human M189 cells assessed as reduction in cell viability measured after 72 hrs by Celltiter-Glo luminescent assay; assay type: functional, cell-based
[17] = Synergistic cytotoxicity against human M221 cells assessed as combination index at 20 uM measured after 72 hrs in presence of 0.05 mM sodium valproate by Celltiter-Glo luminescent assay based Chou-Talalay method; assay type: functional
Homo sapiens [18] = organism: Homo sapiens; test: Downregulation of XRCC5 mRNA level in human M221 cells by SYBR-green dye based qRT-PCR analysis; assay type: functional, cell-based
Homo sapiens [19] = organism: Homo sapiens; test: Downregulation of XRCC5 mRNA level in human M193 cells by SYBR-green dye based qRT-PCR analysis; assay type: functional, cell-based
Homo sapiens [20] = organism: Homo sapiens; test: Upregulation of TMED7 mRNA level in human M2025 cells by SYBR-green dye based qRT-PCR analysis; assay type: functional, cell-based
[21] = Cytotoxicity against human M187 cells assessed as reduction in cell viability measured after 72 hrs by Celltiter-Glo luminescent assay; assay type: functional, cell-based
[22] = Cytotoxicity against human M307 cells assessed as reduction in cell viability measured after 72 hrs by Celltiter-Glo luminescent assay; assay type: functional, cell-based
[23] = Chemosensitization activity in human M221 cells assessed as reduction in cell viability at 20 uM measured after 72 hrs in presence of 50 nM sodium valproate by Celltiter-Glo luminescent assay relative to control; assay type: functional
[24] = Cytotoxicity against human M433 cells assessed as reduction in cell viability measured after 72 hrs by Celltiter-Glo luminescent assay; assay type: functional, cell-based
[25] = Chemosensitization activity in human M193 cells assessed as reduction in cell viability at 20 uM measured after 72 hrs in presence of 6 mM sodium valproate by Celltiter-Glo luminescent assay relative to control; assay type: functional
Homo sapiens [26] = organism: Homo sapiens; test: Downregulation of NSUN5 mRNA level in human M221 cells by SYBR-green dye based qRT-PCR analysis; assay type: functional, cell-based
Homo sapiens [27] = organism: Homo sapiens; test: Downregulation of XRCC5 mRNA level in human M433 cells by SYBR-green dye based qRT-PCR analysis; assay type: functional, cell-based
Homo sapiens [28] = organism: Homo sapiens; test: Upregulation of PLOD2 mRNA level in human M2025 cells by SYBR-green dye based qRT-PCR analysis; assay type: functional, cell-based
[29] = Cytotoxicity against human M1 cells assessed as reduction in cell viability measured after 72 hrs by Celltiter-Glo luminescent assay; assay type: functional, cell-based
[30] = Chemosensitization activity in human M193 cells assessed as reduction in cell viability at 20 uM measured after 72 hrs in presence of 4 mM sodium valproate by Celltiter-Glo luminescent assay relative to control; assay type: functional
M34 [31] = test: Cytotoxicity against human M34 cells assessed as reduction in cell viability measured after 72 hrs by Celltiter-Glo luminescent assay; assay type: functional, cell-based; conditions: M34, 72 h
[32] = Cytotoxicity against human M221 cells assessed as reduction in cell viability measured after 72 hrs by Celltiter-Glo luminescent assay; assay type: functional, cell-based
[33] = Cytotoxicity against human M133 cells assessed as reduction in cell viability measured after 72 hrs by Celltiter-Glo luminescent assay; assay type: functional, cell-based
[34] = Cytotoxicity against human M221 cells assessed as reduction in cell viability at 20 uM measured after 72 hrs by Celltiter-Glo luminescent assay relative to control; assay type: functional
Homo sapiens [35] = organism: Homo sapiens; test: Upregulation of PLOD2 mRNA level in human M433 cells by SYBR-green dye based qRT-PCR analysis; assay type: functional, cell-based
[36] = Cytotoxicity against human M24 cells assessed as reduction in cell viability measured after 72 hrs by Celltiter-Glo luminescent assay; assay type: functional, cell-based; conditions: M24, 72 h
[37] = Synergistic cytotoxicity against human M193 cells assessed as combination index at 20 uM measured after 72 hrs in presence of 6 mM sodium valproate by Celltiter-Glo luminescent assay based Chou-Talalay method; assay type: functional
M34 [38] = test: Downregulation of XRCC5 mRNA level in human M34 cells by SYBR-green dye based qRT-PCR analysis; assay type: functional, cell-based
Homo sapiens [39] = organism: Homo sapiens; test: Upregulation of TMED7 mRNA level in human M221 cells by SYBR-green dye based qRT-PCR analysis; assay type: functional, cell-based
[40] = Cytotoxicity against human M7 cells assessed as reduction in cell viability measured after 72 hrs by Celltiter-Glo luminescent assay; assay type: functional, cell-based
[41] = Chemosensitization activity in human M193 cells assessed as reduction in cell viability at 20 uM measured after 72 hrs in presence of 0.8 mM sodium valproate by Celltiter-Glo luminescent assay relative to control; assay type: functional
Homo sapiens [42] = organism: Homo sapiens; test: Downregulation of NSUN5 mRNA level in human M433 cells by SYBR-green dye based qRT-PCR analysis; assay type: functional, cell-based
Homo sapiens [43] = organism: Homo sapiens; test: Upregulation of PLOD2 mRNA level in human M193 cells by SYBR-green dye based qRT-PCR analysis; assay type: functional, cell-based
M34 [44] = test: Upregulation of PLOD2 mRNA level in human M34 cells by SYBR-green dye based qRT-PCR analysis; assay type: functional, cell-based
M34 [45] = test: Downregulation of NSUN5 mRNA level in human M34 cells by SYBR-green dye based qRT-PCR analysis; assay type: functional, cell-based
[46] = Synergistic cytotoxicity against human M221 cells assessed as combination index at 20 uM measured after 72 hrs in presence of 0.8 mM sodium valproate by Celltiter-Glo luminescent assay based Chou-Talalay method; assay type: functional
[47] = Cytotoxicity against human M193 cells assessed as reduction in cell viability measured after 72 hrs by Celltiter-Glo luminescent assay; assay type: functional, cell-based
[48] = Synergistic cytotoxicity against human M193 cells assessed as combination index at 20 uM measured after 72 hrs in presence of 4 mM sodium valproate by Celltiter-Glo luminescent assay based Chou-Talalay method; assay type: functional
Homo sapiens [49] = organism: Homo sapiens; test: Downregulation of NSUN5 mRNA level in human M2025 cells by SYBR-green dye based qRT-PCR analysis; assay type: functional, cell-based
[50] = Cytotoxicity against human M144 cells assessed as reduction in cell viability measured after 72 hrs by Celltiter-Glo luminescent assay; assay type: functional, cell-based
[51] = Chemosensitization activity in human M221 cells assessed as reduction in cell viability at 20 uM measured after 72 hrs in presence of 0.8 mM sodium valproate by Celltiter-Glo luminescent assay relative to control; assay type: functional

CCCC(CCC)C(=O)O
inactive: Activity (Homo sapiens [1]) | Activity (Homo sapiens [2])

CSc1nc(Nc2cccc(Cl)c2)c2cnn(CCc3ccccc3)c2n1
89%: Activity [25]
84%: Activity [12] | Activity [30]
active: Activity (Homo sapiens [4]) | Activity (Homo sapiens [8]) | Activity (Homo sapiens [11]) | Activity (Homo sapiens [13]) | Activity (M34 [14]) | Activity (Homo sapiens [15]) | Activity (Homo sapiens [18]) | Activity (Homo sapiens [19]) | Activity (Homo sapiens [20]) | Activity (Homo sapiens [26]) | Activity (Homo sapiens [27]) | Activity (Homo sapiens [28]) | Activity (Homo sapiens [35]) | Activity (M34 [38]) | Activity (Homo sapiens [39]) | Activity (Homo sapiens [42]) | Activity (Homo sapiens [43]) | Activity (M34 [44]) | Activity (M34 [45]) | Activity (Homo sapiens [49])
75%: Activity [23] | Activity [41]
92%: Activity [51]
0.76: CI [48]
0.696: CI [37]
0.766: CI [17]
0.835: CI [6]
47%: Activity [7]
0.681: CI [9]
55%: Activity [34]
0.603: CI [46]
0.09 to 9.01 µM: IC50 [3] | IC50 [5] | IC50 [10] | IC50 [16] | IC50 [21] | IC50 [22] | IC50 [24] | IC50 [29] | IC50 (M34 [31]) | IC50 [32] | IC50 [33] | IC50 [36] | IC50 [40] | IC50 [47] | IC50 [50]
